In patent US9908899B2 (BIOMARIN PHARMACEUTICAL INC., priority 2011, dated 2018):

Legend:
Human Hepatocytes = experiment: Compound stability in hepatocytes; conditions: 5 μM
Experimental: To assess the stability and metabolism of RGFP compounds in hepatocytes. This assay was designed to evaluate the metabolism of RGFP compounds, following their incubation with human, monkey, dog and rat hepatocytes by monitoring either parent drug disappearance or metabolite appearance using HPLC.
Procedure: • Turn on the water-bath heater to 37° C. • Take out the KHB buffer and make sure it is at room temp before use • Prepare 2.5 mM concentration of RGFP compound in DMSO stock • Add 10 μL of above DMSO stock to 2490 μL KHB buffer; final concentration of RGFP compound will be 10 μM • Pre-warm 45 ml InVitro HT Medium to 37° C. in a sterile 50 ml conical tube • Add 1.0 mL Torpedo Antibiotic Mix per 45 mL InVitro HT medium • Transfer 13 mL of warm HT medium with Antibiotic Mix into a 15 mL conical tube. • Carefully remove the hepatocyte vials from liquid nitrogen (liquid phase). • Immediately immerse the vial into a 37° C. water bath. Shake gently until the ice melts entirely. […] Loosen the cell pellet by gently swirling the centrifuge tube • Transfer 100 μL of above solution to a different tube and add 900 μL of KHB buffer to count the cells • Determine the total cell count and the number of viable cells using the Trypan Blue exclusion method • Once you obtain the cell count, multiply the number by 10 (attributing to the dilution factor) • Now add required volume of KHB buffer to the tube containing hepatocytes such that the final count will be 2 million cells/mL • Dispense 50 μL of 2 million cells/ml to a 96 well plate and then add 50 μl of DMSO stock to respective wells (such that, the concentration of RGFP compounds is 5 μM and number of cells are 100000 in each well) • Place the plates on a shaker in a 37° C. incubator with 5% CO2 • Separate plates for each time point are advisable (Time points: 0 h, 1 h, 2 h, and 6 h) • After each time point, add 100 μL of quenching solution. • Quenching solution is an acetonitrile solution containing RGFP531 (10 μM) internal standard, 0.1% formic acid and phenylglyoxol (400 μM). The formic acid and phenylglyoxal is used for the identification and quantification of OPD as mentioned above. • Pipette up and down a few times to ensure a complete stop of reaction • Transfer all the solution into a 1.5 ml tube, vortex thoroughly, and centrifuge at 14000 RPM at 4° C. for 5 minutes to precipitate cell debris
Transfer the 150 μL of supernatant to vials for analysis using HPLC

[1] = Brain penetration studies; conditions: Table 4; mice; Cmax(brain)/Cmax(plasma)
Experimental: Test compounds were prepared at either 0.5 mg/ml or 5 mg/ml in 30% hydroxypropyl-β-cyclodextrin, 100 mM sodium acetate pH 5.5, 5% DMSO. C57/BL6/J mice were dosed s.c. at 5 mg/kg or 50 mg/kg, or i.v. at 5 mg/kg. Animals were euthanized at pre-dose, 5, 15, 30 min, 1, 2 and 4 hours post-dose and plasma and brain obtained. Three animals per dose per time points were used. The levels of compound in the plasma and brain were determined by standard LC/MS/MS methods. Brain/plasma ratio (BPR) was calculated as the ratio of the Cmax(brain)/Cmax(plasma).

HDAC3/NcoR2 = HDAC3/NcoR2 (Homo sapiens (Human), UniProt O15379); experiment: HDAC activity inhibition assay, HDAC3/NcoR2; assay type: biochemical
Experimental: (§1) The HDAC activity inhibition assay was performed as follows to determine the ability of a test compound to inhibit HDAC enzymatic activity. […] Following pre-incubation, Fluor-de-Lys™ substrate (Enzo Life Sciences, Plymouth Meeting, Pa., BML-KI104-0050) was added to a final concentration of 10 μM and plates were further incubated for 30 minutes at room temperature. […] IC50 values were calculated by using a sigmoidal dose-response (variable slope) equation in GraphPad Prism® 5 for Windows (GraphPad Software, La Jolla, Calif.).

HDAC1 = HDAC1 (Homo sapiens (Human), UniProt Q13547); experiment: HDAC activity inhibition assay, HDAC1; assay type: biochemical
Experimental: as §1

HDAC2 = HDAC2 (Homo sapiens (Human), UniProt Q92769); experiment: HDAC activity inhibition assay, HDAC2; assay type: biochemical
Experimental: as §1

[2] = Acid stability determination; assay type: physicochemical; conditions: 100 μM in 0.01 M HCl, 50° C.
Experimental: A 100 μM solution of test compound was prepared by dilution of a 10 mM DMSO stock solution in a 0.01 M solution of HCl in deionized water. Immediately after mixing, an aliquot (100 μL) was sampled and analyzed by HPLC/UV. The area under the compound peak was determined and used as the time zero reference point. The remainder of the acid sample was incubated at 50° C. and samples were taken after 2, 4, and 24 hours of incubation. On a few occasions, samples were taken at 30 rather than 24 hours. These were analyzed by the same HPLC/UV method and the area of the peak corresponding to the test compound was measured. Percent remaining at a given time point was then calculated as the ratio of the area under the peak after incubation to that at time zero times 100. In those cases where a 30 hour time point was recorded, the percent remaining at 24 hours was obtained by interpolation of the percent remaining versus time curve assuming a unimolecular process, i.e. a monoexponential decay. Percent remaining after 24 hours incubation are presented in Tables 2 and 4 below, where A corresponds to more than 60%, B is between 40 and 60%, C covers 20 to 40% and D means less than 20%.

Frataxin (FXN) mRNA = experiment: Effect of HDAC inhibitors on frataxin (FXN) mRNA expression in Friedreich's ataxia patient primary lymphocytes; assay type: cell-based, human; conditions: Homo sapiens, Lymphocyte; Friedreich's ataxia patient primary lymphocytes, 48 hours; read-out: FXN 2x (concentration required for a 2-fold increase in FXN mRNA)
Experimental: Blood is collected from Friedreich's ataxia patient donors into tubes containing the anti-coagulant EDTA. Primary lymphocytes are isolated using Lymphocyte Separation Medium (MP Biomedicals, Solon, Ohio) following the manufacturer's instructions and including a few modifications made by Repligen. After a final wash in Phosphate Buffered Saline (PBS), the cells are distributed into a 6-well cell culture plate in cell growth medium. The test HDAC inhibitor compound is added to cells in a dose escalating manner (usually concentrations range from 1 to 10 μM) and 0.1% DMSO is added to one well of cells as a no treatment control. Cells are incubated for 48 hours at 37° C. in a CO2 incubator; cell counts are taken using a Countess automated cell counter (Invitrogen, Carlsbad, Calif.). Equivalent numbers of cells for all treatment conditions are pelleted by centrifugation and resuspended in cell lysis buffer. Total RNA is isolated from approximately 1×10^6 primary lymphocytes using a RNeasy Mini Kit (Qiagen, Valencia, Calif.), following the manufacturer's instructions and including an optional on-column DNAse digestion step. The isolation is performed either manually or using the QIAcube (Qiagen, Valencia, Calif.), an instrument that automates much of the isolation procedure. The RNA yield and concentration is determined using a Nanodrop spectrophotometer (Thermo Fisher Scientific, Waltham, Mass.) and depending on the RNA concentration, one of two protocols is used to measure frataxin (FXN) transcript levels. For samples containing at least 15 ng/μL RNA a TaqMan® Probe-based (Applied Biosystems, Carlsbad, Calif.) qRT-PCR method is used, while for samples containing less than 15 ng/μL RNA a SYBR Green qRT-PCR method is used. In the TaqMan® Probe-based method specific primer/probe pairs for FXN and GAPDH are multiplexed in each reaction. In the SYBR Green method FXN and GAPDH are amplified in separate reactions. In both methods each RNA sample is analyzed in triplicate (preferably) or duplicate (minimally) using a one-step qRT-PCR master mix that contains all the components necessary for cDNA synthesis and PCR amplification in a single, continuous reaction. After cycling is complete, MxPro Software (Agilent Technologies, Santa Clara, Calif.) is used to analyze the collected data and determine the relative amount of FXN mRNA compared to a control sample. An adaptive baseline method is used for baseline correction whereby an algorithm automatically selects the appropriate baseline cycles for each well and each dye. An amplification-based threshold is set and the corresponding threshold cycle, or Ct, is obtained for calculating target concentration. The Ct values for each target gene (FXN and GAPDH) for each replicate series are averaged. The amount of FXN (or GAPDH) in the sample is determined as the relative quantity to the calibrator where the calibrator sample is assigned an arbitrary quantity of 1. The following equation is used: Relative quantity to the calibrator=2^−ΔCt where ΔCt=(Ct_gene)unknown−(Ct_gene)calibrator, gene is either FXN or GAPDH, calibrator is a DMSO control sample, and unknown is a HDACi treated sample. The relative quantity of FXN is normalized to cell number and RNA input. Data is reported in Tables 2 and 4 below, where the concentration required for a 2-fold increase in FXN mRNA is reported as A if less than 5 μM, B if between 5 and 10 μM, C if greater than 10 μM.

[3] = Table 1, 2 hours pre-incubation

Chain of HDAC3/NcoR2 (O15379 whole entry): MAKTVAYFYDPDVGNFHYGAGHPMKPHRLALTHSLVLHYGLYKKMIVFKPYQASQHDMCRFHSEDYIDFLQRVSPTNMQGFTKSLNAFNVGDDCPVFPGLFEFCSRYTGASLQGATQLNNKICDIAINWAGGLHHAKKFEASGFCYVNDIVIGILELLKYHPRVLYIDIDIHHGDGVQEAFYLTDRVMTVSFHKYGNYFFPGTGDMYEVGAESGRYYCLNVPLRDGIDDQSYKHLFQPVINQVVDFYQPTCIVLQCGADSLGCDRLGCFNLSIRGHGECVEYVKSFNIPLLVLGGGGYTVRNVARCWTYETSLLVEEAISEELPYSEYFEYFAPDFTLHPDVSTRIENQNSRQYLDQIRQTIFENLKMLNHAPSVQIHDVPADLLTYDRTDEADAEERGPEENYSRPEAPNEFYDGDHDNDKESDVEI
Chain of HDAC3/NcoR2 (Q9Y618 395-489 partner): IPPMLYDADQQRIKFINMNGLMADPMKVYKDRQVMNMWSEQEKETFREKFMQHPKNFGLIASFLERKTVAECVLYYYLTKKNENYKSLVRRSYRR
Chain of HDAC1 (Q13547 whole entry): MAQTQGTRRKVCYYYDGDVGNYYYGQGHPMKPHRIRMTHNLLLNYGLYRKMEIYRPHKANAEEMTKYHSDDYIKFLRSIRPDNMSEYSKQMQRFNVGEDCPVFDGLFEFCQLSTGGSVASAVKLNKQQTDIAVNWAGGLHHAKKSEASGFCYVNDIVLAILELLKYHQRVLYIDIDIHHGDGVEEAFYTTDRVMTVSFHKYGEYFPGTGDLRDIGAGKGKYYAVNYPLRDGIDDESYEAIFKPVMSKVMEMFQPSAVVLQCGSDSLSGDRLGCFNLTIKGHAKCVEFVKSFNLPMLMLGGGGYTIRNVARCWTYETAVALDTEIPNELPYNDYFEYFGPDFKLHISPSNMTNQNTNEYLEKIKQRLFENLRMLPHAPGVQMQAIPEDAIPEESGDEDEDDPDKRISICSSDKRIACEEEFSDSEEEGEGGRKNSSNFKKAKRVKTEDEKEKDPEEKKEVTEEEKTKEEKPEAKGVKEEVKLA
Chain of HDAC2 (Q92769 whole entry): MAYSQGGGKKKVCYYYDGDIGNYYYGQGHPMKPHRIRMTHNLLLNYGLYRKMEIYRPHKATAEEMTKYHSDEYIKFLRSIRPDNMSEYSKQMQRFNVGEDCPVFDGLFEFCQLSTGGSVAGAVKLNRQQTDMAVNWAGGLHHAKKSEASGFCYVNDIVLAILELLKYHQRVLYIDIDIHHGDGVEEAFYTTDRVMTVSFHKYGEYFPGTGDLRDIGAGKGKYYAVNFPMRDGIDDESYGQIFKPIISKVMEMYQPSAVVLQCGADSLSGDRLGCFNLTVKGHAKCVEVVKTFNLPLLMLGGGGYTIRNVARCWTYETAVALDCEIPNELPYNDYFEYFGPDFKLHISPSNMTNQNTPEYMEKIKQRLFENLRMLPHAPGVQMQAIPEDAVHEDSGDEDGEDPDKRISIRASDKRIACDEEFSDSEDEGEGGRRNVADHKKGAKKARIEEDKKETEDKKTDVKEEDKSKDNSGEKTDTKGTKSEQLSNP

% left 6 h Hum (Human Hepatocytes)	IC50 (HDAC3/NcoR2; Table 4)	IC50 (HDAC1; Table 4)	IC50 (HDAC2; Table 4)	IC50 (HDAC3/NcoR2; [3])	IC50 (HDAC1; [3])	acid stability (percent remaining after 24 hours incubation) [2]	IC50 (HDAC2; [3])	Compound	BPR [1]	EC (2-fold FXN mRNA) (Frataxin (FXN) mRNA)
				< 1000 nM	< 1000 nM	A (A corresponds to more than 60%)	< 1000 nM	Nc1ccccc1NC(=O)/C=C/c1cnn(CCOc2ccccc2)c1 [D3, (E)-N-(2-aminophenyl)-3-(1-(2-phenoxyethyl)-1H-pyrazol-4-yl)acrylamide]		5 to 10 µM
				< 1000 nM	< 1000 nM	B (B is between 40 and 60%)	1000 to 5000 nM	Nc1ccccc1NC(=O)/C=C/c1cnn(CCc2ccccc2)c1 [D7]		5 to 10 µM
C (30%>C>10%)	< 1000 nM	< 1000 nM	< 1000 nM					Nc1ccccc1NC(=O)c1ccc(C=C2CN(Cc3cccnc3)C2)cc1 [F18]		
				< 1000 nM	< 1000 nM	A (A corresponds to more than 60%)	< 1000 nM	Nc1ccccc1NC(=O)/C=C/c1cnn(CCCCc2ccccc2)c1 [D9]		< 5 µM
				< 1000 nM	< 1000 nM	B (B is between 40 and 60%)	< 1000 nM	Nc1ccccc1NC(=O)/C=C/c1cnn(CCOCc2ccccc2)c1 [D14]		5 to 10 µM
C (30%>C>10%)	< 1000 nM	< 1000 nM	< 1000 nM					Nc1ccccc1NC(=O)c1ccc(C=C2CN(Cc3ccccc3)C2)cc1 [F17]		
				< 1000 nM	< 1000 nM	A (A corresponds to more than 60%)	1000 to 5000 nM	Nc1ccccc1NC(=O)/C=C/c1cnn(Cc2ccccc2)c1 [D4]		> 10 µM

Further lines, the molecule ahead of its results:

Compound	% left 6 h Hum (Human Hepatocytes)	IC50 (HDAC3/NcoR2; Table 4)	IC50 (HDAC1; Table 4)	IC50 (HDAC2; Table 4)	IC50 (HDAC3/NcoR2; [3])	IC50 (HDAC1; [3])	acid stability (percent remaining after 24 hours incubation) [2]	IC50 (HDAC2; [3])	BPR [1]	EC (2-fold FXN mRNA) (Frataxin (FXN) mRNA)
Nc1ccccc1NC(=O)c1ccc(C=C2CCN(CC3CC3)CC2)cc1 [F13]	B (50%>B>30%)	< 1000 nM	< 1000 nM	< 1000 nM					A (A is greater than 1)	
Nc1ccccc1NC(=O)c1ccc(C=C2CN(Cc3ccc4cc[nH]c4c3)C2)cc1 [F3]					< 1000 nM	< 1000 nM	B (B is between 40 and 60%)	< 1000 nM		< 5 µM
Nc1ccccc1NC(=O)c1ccc(C=C2CN(CC3CC3)C2)c(Cl)c1 [F10]	B (50%>B>30%)								A (A is greater than 1)	
Nc1ccccc1NC(=O)c1ccc(C=C2COC2)c(Cl)c1 [F11]	C (30%>C>10%)	< 1000 nM	< 1000 nM						A (A is greater than 1)	
Cc1cccc(CN2CC(=Cc3ccc(C(=O)Nc4ccccc4N)cc3)C2)n1 [F16]	C (30%>C>10%)	< 1000 nM	< 1000 nM	< 1000 nM						
CC(C)(O)CN1CC(=Cc2ccc(C(=O)Nc3ccccc3N)cc2)C1 [F19]	A (50%<A)	< 1000 nM	< 1000 nM	1000 to 5000 nM						
Nc1ccccc1NC(=O)c1ccc(C=C2CCN(Cc3cccnc3)CC2)cc1 [F2]					< 1000 nM	< 1000 nM	B (B is between 40 and 60%)	< 1000 nM		< 5 µM
CN1C2CCC1CC(=Cc1ccc(C(=O)Nc3ccccc3N)cc1Cl)C2 [F8]		< 1000 nM	< 1000 nM	< 1000 nM					C (C is 0.2 to 0.5)	
Nc1cc(F)ccc1NC(=O)c1ccc(C=C2CN(CC3CC3)C2)cc1 [F20]	A (50%<A)	< 1000 nM	1000 to 5000 nM	1000 to 5000 nM						
Nc1ccccc1NC(=O)c1ccc(C=C2COC2)cc1F [F9]	IA (IA<10%)	< 1000 nM	< 1000 nM							
Nc1ccccc1NC(=O)c1ccc(C=C2CCN(Cc3cccnc3)CC2)c(Cl)c1 [F7]	C (30%>C>10%)	< 1000 nM	< 1000 nM	< 1000 nM	< 1000 nM	< 1000 nM		< 1000 nM		
